Measurements published in US12391683B2, “Therapeutic compounds and methods” (Actio Biosciences, Inc., priority 2022, dated 2025).
pIC50: −log10 of the molar value. Where “and” joins values, the source holds several entries; their conditions need not be identical. Equal values may be shown once.

What was measured:
[1] = target: Human TRPV4 (Homo sapiens, UniProt Q9HBA0); assay: TRPV4 calcium flux assay (FLIPR, antagonist mode); type: cell-based; parameters: HiBiT (inferred from the expression read-out); host or cells: HEK293T; conditions: HEK293T cells transfected with hTRPV4; antagonist mode vs EC80 of TRPV4 agonist; average of at least 3 separate experiments; read-out: Human TRPV4 Ca2+ Assay IC50
Sequence of Human TRPV4 (Q9HBA0 whole entry): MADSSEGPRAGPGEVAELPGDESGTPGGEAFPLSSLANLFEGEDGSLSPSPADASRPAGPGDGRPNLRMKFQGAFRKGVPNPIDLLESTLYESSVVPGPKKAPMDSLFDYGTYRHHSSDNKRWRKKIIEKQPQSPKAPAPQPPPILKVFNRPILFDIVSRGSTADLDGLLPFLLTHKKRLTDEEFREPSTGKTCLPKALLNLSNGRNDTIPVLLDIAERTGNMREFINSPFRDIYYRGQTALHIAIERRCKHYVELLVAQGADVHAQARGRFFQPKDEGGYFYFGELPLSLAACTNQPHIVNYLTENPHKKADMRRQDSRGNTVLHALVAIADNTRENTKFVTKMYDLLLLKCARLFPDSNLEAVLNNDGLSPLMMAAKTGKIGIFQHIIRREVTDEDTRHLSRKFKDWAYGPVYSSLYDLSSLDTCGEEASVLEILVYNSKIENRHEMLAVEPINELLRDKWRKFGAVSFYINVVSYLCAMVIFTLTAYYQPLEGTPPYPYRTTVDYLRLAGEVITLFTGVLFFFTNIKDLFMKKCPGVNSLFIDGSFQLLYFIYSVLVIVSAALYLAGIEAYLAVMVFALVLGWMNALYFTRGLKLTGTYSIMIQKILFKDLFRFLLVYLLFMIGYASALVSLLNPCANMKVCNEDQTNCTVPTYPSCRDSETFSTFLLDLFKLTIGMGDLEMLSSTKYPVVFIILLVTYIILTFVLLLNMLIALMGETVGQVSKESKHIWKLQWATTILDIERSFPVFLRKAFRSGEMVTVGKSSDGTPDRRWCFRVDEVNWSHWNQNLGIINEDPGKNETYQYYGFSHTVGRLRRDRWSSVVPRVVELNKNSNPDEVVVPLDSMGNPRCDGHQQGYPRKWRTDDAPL
Method: Example 23. TRPV4 Calcium Assay Methods
Human embryonic kidney 293T (HEK293T/293T) cells are cultured in complete media (Dulbecco's Modified Eagle Medium (DMEM), containing 10% fetal bovine serum (FBS) and 1× penicillin-streptomycin) in a T-75 tissue culture flask. At 90% confluency, cells are detached using TrypLE™ Express cell dissociation buffer. TrypLE™ Express buffer is neutralized by adding culture media in excess. Cells are gently triturated and counted using trypan blue in a Countess 3 automated cell counter. Cells are transferred to a 50 mL conical tube and spun down at 1000 rotations per minute (RPM) for five minutes in a benchtop centrifuge. Media containing detaching enzyme is aspirated off the pellet, followed by resuspension to the desired concentration of 2×10^6 cells per mL in complete DMEM.
Transfection preparations were scaled using a combination of 6 μg of TRPV4 wild-type or mutant plasmid DNA, 36 μL of Fugene6 transfection reagent, and 1000 μL of OptiMEM media for every 2×10^6 cells needed. The transfection mix is left to incubate for 20 minutes at room temperature. Total seeding mixture (1000 μL 2×10^6 cells, 1000 μL transfection mix previously described, and 1000 μL complete DMEM) for one transfection is combined into a 15 mL conical tube. The cells and transfection plasmid are mixed thoroughly and dispensed into a reservoir. This is plated at 25 μL per well in a black 384, black-well, clear-bottom, tissue-culture treated plate. This yields approximately 16,000 cells per well. Plasmid DNA constructs were designed by Actio Biosciences in conjunction with Genscript, and generated by Genscript, for all hTRPV4 wild-type and hTRPV4 P/LP (ClinVar) mutations (G78W, P82S, T891, P97R, R186Q, R232C, R232P, R237G, R237Q, R237 L, R269C, R269H, R269S, G270V, R271P, F273 L, K276E, E278K, G280S, Y281S, R315G, R315W, R316C, R316H, R316 L, R316S, I331F, D333G, S403T, K403T, K407E, S542P, S542Y, L543R, Y591N, R594C, R594H, R594S, G600E, Y602C, R616Q, F617 L, L618P, V6201, A716S, A716T, L735R, T740I, R775K, W785R, E797D, E797K, P799A, P799R, P799S, P799 L, G800D, K801E, P827H, F471del, N797del). The remaining cells are plated in the same manner, in a 384, white-well, clear-bottom, tissue-culture treated plate for expression and relative cell number determination. Plates are placed in the incubator at 37° C. overnight.
Compounds were brought to 10 mM in DMSO. DMSO concentration was kept constant throughout the dilution of any compound. DMSO negative control and concentration-response curves were nanoliter-spotted via PICO8 automated dispenser at 5× test concentration into a 384w clear polypropylene plate containing 1×HBSS+20 mM HEPES buffer. A predetermined concentration equivalent to the EC80 of TRPV4 agonist on hTRPV4 was prepared at 6× in 1×HBSS+20 mM HEPES and loaded into a separate 384-well v-bottom polypropylene plate.
Approximately 18 hours post-transfection, the cell plates were removed from the incubator and equal volume (25 uL) Calcium 6 dye was gently added. Calcium 6 dye containing probenecid (final 5 mM) was prepared per manufacturer's instructions. Cell plate was returned to the incubator for 1 hour, at 37° C.
FLIPR Penta was programmed to add compound using the following settings • Pipettor Head=384 • Read Mode 1 Excitation Wavelength=470_495 • Read Mode 1 Emission Wavelength=515_575 • Read Mode 1 Exposure=0.1000 • Read Mode 1 Gain=6.50 • Read Mode 1 Excitation Intensity=20 • Volume of addition=12.5 μL • Height=40 μL • Speed=15 μL/second
Raw data was exported and analyzed for maximum signal (RFU) after agonist addition—the average baseline (RFU) in the first 15 seconds per well. Data was plotted in GraphPad Prism to determine EC50 or IC50 of the molecules.

[2] = target: recombinant human CYP3A4 enzyme (Homo sapiens, UniProt P08684); assay: CYP3A4 incubation assay; type: in vitro ADME
Sequence of recombinant human CYP3A4 enzyme (P08684 whole entry): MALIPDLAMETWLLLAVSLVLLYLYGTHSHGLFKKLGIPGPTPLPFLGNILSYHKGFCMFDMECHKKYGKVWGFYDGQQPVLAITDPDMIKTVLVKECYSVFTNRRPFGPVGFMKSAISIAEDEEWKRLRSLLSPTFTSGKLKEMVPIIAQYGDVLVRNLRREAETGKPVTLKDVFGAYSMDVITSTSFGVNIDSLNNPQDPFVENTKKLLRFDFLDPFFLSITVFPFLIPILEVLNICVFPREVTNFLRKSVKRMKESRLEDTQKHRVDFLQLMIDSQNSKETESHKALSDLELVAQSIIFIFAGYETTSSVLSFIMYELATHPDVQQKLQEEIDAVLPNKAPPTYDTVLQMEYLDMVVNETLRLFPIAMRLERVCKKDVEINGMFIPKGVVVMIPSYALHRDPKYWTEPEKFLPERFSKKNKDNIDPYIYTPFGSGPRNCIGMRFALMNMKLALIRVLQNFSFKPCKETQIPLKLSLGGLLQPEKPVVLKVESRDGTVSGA
Method: Example 24. CYP3A4 Incubation Assay
Compounds (final concentration […]) were incubated in 100 mM phosphate buffer containing 100 pmol/mL recombinant human CYP3A4 enzyme for 0, 5, 10, 15 and 25 minutes.
Testosterone was used as positive control. Reaction was initiated by the addition of NADPH (final concentration […]) and carried out at 37° C. The reaction was stopped by the addition of 4 volumes of cold acetonitrile (with 100 nM alprazolam, 200 nM labetalol, 200 nM imipramine and 2 μM ketoprofen as internal standards). Samples were centrifuged at 3,220 g for 40 minutes to precipitate protein. 70 μL supernatant was transferred to the analysis plate containing 110 μL of acetonitrile for LC-MS/MS analysis.
The following table indicates the percentage remaining for the indicated examples after incubation with recombinant Human CYP3A4 after 25 minutes under the same conditions as described for Example […].

[3] = system: Hepatocytes; assay: Hepatocytes predicted clearance, human
[4] = system: Hepatocytes; assay: Hepatocytes predicted clearance, mouse
[5] = system: Hepatocytes; assay: Hepatocytes predicted clearance, cyno
[6] = system: Hepatocytes; assay: Hepatocytes predicted clearance, rat
[7] = system: Hepatocytes; assay: Hepatocytes predicted clearance, dog
[8] = 100 pmol/mL recombinant human CYP3A4, 37° C., 0-25 min

Row | SMILES | pIC50 [1] | CYP3A4 Clint [2, 8] | Hepatocytes predicted clearance in human [3] [L/h/kg] | Hepatocytes predicted clearance in mouse [4] [L/h/kg] | CYP3A4 Clint ([2]; human, recombinant enzyme) | Hepatocytes predicted clearance in cyno [5] [L/h/kg] | Hepatocytes predicted clearance in rat [6] [L/h/kg] | Hepatocytes predicted clearance in dog [7] [L/h/kg]
1 | CO[C@@H]1CC[C@@]2(CN(c3cnc(C(C)(C)O)cn3)C(=O)O2)C[C@@]1(C)Cn1cnc2ccc(C#N)cc21 (single isomer, unassigned) [Example 10] | 6.80 | 0.22 μL/min/pmol CYP450 and 0.21 μL/min/pmol CYP450 | – | – | – | – | – | –
2 | CO[C@]1(Cn2cnc3ccc(C#N)cc32)CCC[C@@]2(CN(c3cnc(C(C)(C)O)cn3)C(=O)O2)C1 [Example 9, 1-(((5S,7R)-3-(5-(2-Hydroxypropan-2-yl)pyrazin-2-yl)-7-methoxy-2-oxo-1-oxa-3-azaspiro[4.5]decan-7-yl)methyl)-1H-benzo[d]imidazole-6-carbonitrile] | 6.67 | 0.42 μL/min/pmol CYP450 and 0.33 μL/min/pmol CYP450 | – | – | – | – | – | –
3 | CC(C)(O)c1cnc(N2C[C@@]3(CC[C@@H](F)[C@](C)(Cn4cnc5c(Cl)cc(C#N)cc54)C3)OC2=O)cn1 (single isomer, unassigned) [Example 19] | 8.05 | – | – | – | – | – | – | –
4 | CC(C)(O)c1cnc(N2C[C@@]3(CC[C@H]4C[C@@]4(Cn4cnc5ccc(C#N)cc54)C3)OC2=O)cn1 (single isomer, unassigned) [Example 8] | 6.41 | – | < 0.01 | 16.87 | <0.07, <0.07 μL/min/pmol CYP450 | 2.25 | 3.27 | 1.8
5 | CC(C)(O)c1cnc(N2C[C@@]3(CCC[C@](CF)(Cn4cnc5ccc(C#N)cc54)C3)OC2=O)cn1 (single isomer, unassigned) [Example 7] | 7.96 | <0.07, <0.07 μL/min/pmol CYP450 | 0.06 | 2.59 | – | 0.27 | 0.4 | < 0.01
6 | CC1(C)C[C@](C)(Cn2cnc3ccc(C#N)cc32)C[C@@]2(CN(c3cnc(C(C)(C)O)cn3)C(=O)O2)C1 (single isomer, unassigned) [Example 17] | 5.24 | 0.07, <0.07 μL/min/pmol CYP450 | 0.09 | 7.13 | – | 2.62 | 2.36 | 0.08
7 | CC(C)(O)c1cnc(N2C[C@@]3(CC[C@@H](F)[C@](C)(Cn4cnc5cc(F)c(C#N)cc54)C3)OC2=O)cn1 (single isomer, unassigned) [Example 18] | 8.05 | – | – | – | – | – | – | –
8 | CC(C)(C)CN1C[C@@]2(CCC(F)(F)[C@H](Cn3cnc4ccc(C#N)cc43)C2)OC1=O (single isomer, unassigned) [Example 11] | 7.41 | – | 1.04 | 30.91 | – | 5.43 | 15.07 | 3.8
9 | N#Cc1ccc2ncn(C[C@@H]3C[C@@]4(CCC3(F)F)CN(c3ccccc3Cl)C(=O)O4)c2c1 (single isomer, unassigned) [Example 12] | 6.99 | – | 0.45 | 26.96 | – | 6.08 | 4.95 | 17.07
10 | C=C1CC[C@@]2(CN(c3cnc(C(C)(C)O)cn3)C(=O)O2)C[C@@]1(C)Cn1cnc2ccc(C#N)cc21 (single isomer, unassigned) [Example 16] | 5.67 | 0.20 μL/min/pmol CYP450 and 0.19 μL/min/pmol CYP450 | 0.33 | 5.44 | – | 1.36 | 4.16 | 0.24
11 | CC(C)(O)c1cnc(N2C[C@@]3(CCC4(CC4)[C@](C)(Cn4cnc5ccc(C#N)cc54)C3)OC2=O)cn1 (single isomer, unassigned) [Example 6] | 8.10 | – | 0.39 | 1.47 | <0.07, <0.07 μL/min/pmol CYP450 | 7.22 | 0.5 | 0.19
12 | CCOc1ccccc1N1C[C@@]2(CCC(F)(F)[C@H](Cn3cnc4ccc(C#N)cc43)C2)OC1=O (single isomer, unassigned) [Example 13] | 6.30 | – | – | – | – | – | – | –
13 | CC(C)(O)c1cnc(N2C[C@@]3(CCC(C)(C)[C@H](Cn4cnc5ccc(C#N)cc54)C3)OC2=O)cn1 (single isomer, unassigned) [Example 1] | 6.22 | – | 0.27 | 7.11 | – | 0.24 | 0.65 | 0.69
14 | CC(C)(O)c1cnc(N2C[C@@]3(CCC4(CC4)[C@@H](Cn4cnc5ccc(C#N)cc54)C3)OC2=O)cn1 (single isomer, unassigned) [Example 3] | 6.07 | – | 0.19 | 7.85 | – | 10.9 | 4.77 | 1.04
